Reference: ChEMBL document CHEMBL2029272, “7-Azabicyclo[2.2.1]heptane as a scaffold for the development of selective sigma-2 (σ2) receptor ligands” (Bioorg Med Chem Lett, 2012)

Experiments:
[1] = target: Histamine H2 receptor (Homo sapiens) (UniProt P25021); assay: Inhibition of H2 receptor at 10 uM
[2] = target: 5-hydroxytryptamine receptor 1E (Homo sapiens) (UniProt P28566); assay: Inhibition of 5-HT1E receptor at 10 uM
[3] = target: 5-hydroxytryptamine receptor 7 (Homo sapiens) (UniProt P34969); assay: Inhibition of 5-HT7 receptor at 10 uM
[4] = target: Mu-type opioid receptor (Homo sapiens) (UniProt P35372); assay: Inhibition of mu opioid receptor at 10 uM
[5] = target: T1, 5-hydroxytryptamine receptor 2C (Homo sapiens) (UniProt P28335); assay: Inhibition of 5-HT2C receptor at 10 uM
T1 sequence (whole entry): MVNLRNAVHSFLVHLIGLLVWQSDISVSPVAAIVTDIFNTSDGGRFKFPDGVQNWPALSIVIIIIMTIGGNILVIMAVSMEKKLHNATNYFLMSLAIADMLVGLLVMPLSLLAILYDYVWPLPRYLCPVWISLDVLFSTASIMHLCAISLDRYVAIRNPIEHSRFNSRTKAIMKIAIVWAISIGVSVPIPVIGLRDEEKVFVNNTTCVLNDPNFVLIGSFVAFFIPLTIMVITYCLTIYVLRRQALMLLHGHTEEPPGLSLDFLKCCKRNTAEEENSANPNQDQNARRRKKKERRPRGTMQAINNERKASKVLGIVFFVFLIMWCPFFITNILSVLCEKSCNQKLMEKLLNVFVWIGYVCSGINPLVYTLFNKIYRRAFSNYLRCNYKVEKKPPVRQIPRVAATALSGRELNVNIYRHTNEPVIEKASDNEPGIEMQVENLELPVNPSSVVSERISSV

[6] = target: 5-hydroxytryptamine receptor 2B (Homo sapiens) (UniProt P41595); assay: Inhibition of 5-HT2B receptor at 10 uM
[7] = Displacement of [3H]DTG from sigma2 receptor in […]; type: cell-based; conditions: pc-12
[8] = target: T2, Muscarinic acetylcholine receptor M5 (Homo sapiens, UniProt P08912); assay: Inhibition of M5 muscarinic receptor
T2 sequence (P08912 whole entry): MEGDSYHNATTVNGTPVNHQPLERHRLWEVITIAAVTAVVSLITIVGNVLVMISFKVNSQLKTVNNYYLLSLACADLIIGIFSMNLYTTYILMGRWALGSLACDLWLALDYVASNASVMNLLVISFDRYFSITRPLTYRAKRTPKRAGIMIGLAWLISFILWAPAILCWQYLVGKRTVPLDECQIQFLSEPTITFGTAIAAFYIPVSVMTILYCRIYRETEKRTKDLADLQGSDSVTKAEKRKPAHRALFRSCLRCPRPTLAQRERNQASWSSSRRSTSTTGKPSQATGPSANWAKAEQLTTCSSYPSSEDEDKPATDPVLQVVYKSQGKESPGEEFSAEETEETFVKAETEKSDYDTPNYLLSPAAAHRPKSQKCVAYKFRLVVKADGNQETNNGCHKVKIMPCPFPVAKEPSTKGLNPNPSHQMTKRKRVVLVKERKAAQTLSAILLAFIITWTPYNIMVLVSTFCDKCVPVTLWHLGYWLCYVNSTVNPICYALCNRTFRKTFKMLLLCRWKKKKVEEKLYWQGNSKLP

[9] = target: T3, 5-hydroxytryptamine receptor 1A (Homo sapiens) (UniProt P08908); assay: Inhibition of 5-HT1A receptor at 10 uM
T3 sequence (whole entry): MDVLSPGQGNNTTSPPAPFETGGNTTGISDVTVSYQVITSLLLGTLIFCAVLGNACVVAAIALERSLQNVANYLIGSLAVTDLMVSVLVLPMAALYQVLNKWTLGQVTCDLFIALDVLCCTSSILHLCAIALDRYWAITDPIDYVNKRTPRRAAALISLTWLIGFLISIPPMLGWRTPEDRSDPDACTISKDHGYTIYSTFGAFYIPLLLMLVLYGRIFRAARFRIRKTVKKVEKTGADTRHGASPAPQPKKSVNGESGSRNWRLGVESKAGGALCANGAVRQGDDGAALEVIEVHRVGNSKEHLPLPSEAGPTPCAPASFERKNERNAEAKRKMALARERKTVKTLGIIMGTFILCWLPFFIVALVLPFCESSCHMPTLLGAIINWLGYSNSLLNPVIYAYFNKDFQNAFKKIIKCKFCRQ

[10] = target: D(1A) dopamine receptor (Homo sapiens) (UniProt P21728); assay: Inhibition of D1 dopamine receptor at 10 uM
[11] = target: T4, Alpha-1D adrenergic receptor (Homo sapiens) (UniProt P25100); assay: Inhibition of alpha1D adrenergic receptor at 10 uM
T4 sequence (whole entry): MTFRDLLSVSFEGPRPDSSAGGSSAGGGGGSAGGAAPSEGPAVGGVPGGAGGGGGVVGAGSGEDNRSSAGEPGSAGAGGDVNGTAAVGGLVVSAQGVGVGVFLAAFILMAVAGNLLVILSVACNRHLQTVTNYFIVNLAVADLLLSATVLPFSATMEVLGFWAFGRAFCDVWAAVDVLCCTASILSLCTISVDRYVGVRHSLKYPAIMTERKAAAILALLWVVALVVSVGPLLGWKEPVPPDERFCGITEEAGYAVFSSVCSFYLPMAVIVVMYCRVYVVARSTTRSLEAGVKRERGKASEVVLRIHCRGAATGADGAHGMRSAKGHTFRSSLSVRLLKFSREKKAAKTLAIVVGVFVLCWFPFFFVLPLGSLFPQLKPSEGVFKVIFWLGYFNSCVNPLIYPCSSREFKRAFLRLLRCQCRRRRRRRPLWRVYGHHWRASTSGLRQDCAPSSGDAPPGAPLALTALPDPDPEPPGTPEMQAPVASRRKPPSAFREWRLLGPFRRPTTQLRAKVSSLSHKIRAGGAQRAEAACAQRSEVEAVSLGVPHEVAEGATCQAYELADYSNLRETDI

[12] = target: 5-hydroxytryptamine receptor 6 (Homo sapiens) (UniProt P50406); assay: Inhibition of 5-HT6 receptor at 10 uM
[13] = species on record: Rattus norvegicus; assay: Inhibition of BZP receptor in rat brain at 10 uM; type: tissue-based
[14] = target: Histamine H3 receptor (Homo sapiens, UniProt Q9Y5N1); assay: Inhibition of H3 receptor at 10 uM
[15] = target: Histamine H1 receptor (Homo sapiens) (UniProt P35367); assay: Inhibition of H1 receptor at 10 uM
[16] = target: 5-hydroxytryptamine receptor 5A (Homo sapiens) (UniProt P47898); assay: Inhibition of 5-HT5A receptor at 10 uM
[17] = target: Beta-1 adrenergic receptor (Homo sapiens) (UniProt P08588); assay: Inhibition of beta1 adrenergic receptor at 10 uM
[18] = target: D(2) dopamine receptor (Homo sapiens, UniProt P14416); assay: Inhibition of D2 dopamine receptor at 10 uM
Chain of D(2) dopamine receptor (P14416 whole entry): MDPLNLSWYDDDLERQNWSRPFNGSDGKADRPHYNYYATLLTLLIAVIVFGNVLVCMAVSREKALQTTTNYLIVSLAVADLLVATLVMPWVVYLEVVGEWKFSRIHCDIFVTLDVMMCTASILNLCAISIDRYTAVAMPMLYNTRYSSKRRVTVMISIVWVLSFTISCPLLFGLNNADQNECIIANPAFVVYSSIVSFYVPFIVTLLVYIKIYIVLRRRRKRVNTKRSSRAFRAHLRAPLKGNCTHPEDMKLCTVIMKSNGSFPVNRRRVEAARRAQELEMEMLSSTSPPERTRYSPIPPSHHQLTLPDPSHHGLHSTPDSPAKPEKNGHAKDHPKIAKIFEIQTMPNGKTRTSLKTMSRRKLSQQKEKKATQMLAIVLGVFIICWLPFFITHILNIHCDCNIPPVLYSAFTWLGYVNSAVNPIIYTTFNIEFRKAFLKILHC

Chain of Histamine H1 receptor (Homo sapiens) (P35367 whole entry): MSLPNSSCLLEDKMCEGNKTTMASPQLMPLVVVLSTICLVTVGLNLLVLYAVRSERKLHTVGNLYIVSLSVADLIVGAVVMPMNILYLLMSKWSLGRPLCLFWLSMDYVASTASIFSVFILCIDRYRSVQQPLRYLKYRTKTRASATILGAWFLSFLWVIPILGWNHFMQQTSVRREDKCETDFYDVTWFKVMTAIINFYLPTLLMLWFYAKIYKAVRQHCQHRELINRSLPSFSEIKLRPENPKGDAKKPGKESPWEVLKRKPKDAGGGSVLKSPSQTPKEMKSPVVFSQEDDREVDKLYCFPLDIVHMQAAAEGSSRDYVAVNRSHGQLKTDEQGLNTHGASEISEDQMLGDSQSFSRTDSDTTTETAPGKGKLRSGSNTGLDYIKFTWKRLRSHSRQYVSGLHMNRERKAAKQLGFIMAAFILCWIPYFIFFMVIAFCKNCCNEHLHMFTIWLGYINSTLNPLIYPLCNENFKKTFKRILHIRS
Chain of Histamine H3 receptor (Q9Y5N1 whole entry): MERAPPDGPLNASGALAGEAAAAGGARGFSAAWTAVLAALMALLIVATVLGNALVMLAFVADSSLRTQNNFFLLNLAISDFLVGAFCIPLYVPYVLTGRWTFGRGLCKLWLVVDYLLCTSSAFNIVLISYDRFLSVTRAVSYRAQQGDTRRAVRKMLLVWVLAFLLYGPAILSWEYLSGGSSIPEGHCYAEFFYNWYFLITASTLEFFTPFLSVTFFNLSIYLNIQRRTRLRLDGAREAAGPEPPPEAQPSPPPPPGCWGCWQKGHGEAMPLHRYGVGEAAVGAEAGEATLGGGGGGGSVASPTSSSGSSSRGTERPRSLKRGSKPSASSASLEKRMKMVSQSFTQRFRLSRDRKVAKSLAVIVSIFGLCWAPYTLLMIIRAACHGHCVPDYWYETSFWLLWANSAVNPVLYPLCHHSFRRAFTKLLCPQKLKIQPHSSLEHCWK
Chain of Beta-1 adrenergic receptor (Homo sapiens) (P08588 whole entry, looked up): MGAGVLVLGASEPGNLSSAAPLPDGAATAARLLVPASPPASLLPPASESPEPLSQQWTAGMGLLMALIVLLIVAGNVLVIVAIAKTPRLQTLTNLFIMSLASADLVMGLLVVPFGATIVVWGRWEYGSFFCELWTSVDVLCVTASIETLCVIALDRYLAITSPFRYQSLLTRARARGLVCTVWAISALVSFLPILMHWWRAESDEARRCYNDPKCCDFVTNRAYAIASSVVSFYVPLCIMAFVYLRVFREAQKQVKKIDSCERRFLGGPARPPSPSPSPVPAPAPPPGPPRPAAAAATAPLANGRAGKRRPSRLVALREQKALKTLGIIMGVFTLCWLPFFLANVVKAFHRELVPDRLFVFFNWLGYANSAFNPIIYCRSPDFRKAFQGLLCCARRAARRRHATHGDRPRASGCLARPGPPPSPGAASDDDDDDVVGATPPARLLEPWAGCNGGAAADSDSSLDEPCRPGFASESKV
Chain of 5-hydroxytryptamine receptor 6 (Homo sapiens) (P50406 whole entry): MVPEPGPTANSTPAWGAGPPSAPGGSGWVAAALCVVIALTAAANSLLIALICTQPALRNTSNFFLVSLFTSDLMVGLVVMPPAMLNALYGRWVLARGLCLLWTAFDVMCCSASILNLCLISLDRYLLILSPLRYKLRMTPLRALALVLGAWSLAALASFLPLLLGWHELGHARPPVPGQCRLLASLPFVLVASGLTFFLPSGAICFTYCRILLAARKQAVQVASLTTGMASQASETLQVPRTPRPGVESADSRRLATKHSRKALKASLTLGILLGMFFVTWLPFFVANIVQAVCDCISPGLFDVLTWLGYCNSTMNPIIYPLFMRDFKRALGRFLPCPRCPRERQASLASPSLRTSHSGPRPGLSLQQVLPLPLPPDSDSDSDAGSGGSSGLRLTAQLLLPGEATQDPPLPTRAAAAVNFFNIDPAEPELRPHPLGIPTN
Chain of 5-hydroxytryptamine receptor 2B (Homo sapiens) (P41595 whole entry): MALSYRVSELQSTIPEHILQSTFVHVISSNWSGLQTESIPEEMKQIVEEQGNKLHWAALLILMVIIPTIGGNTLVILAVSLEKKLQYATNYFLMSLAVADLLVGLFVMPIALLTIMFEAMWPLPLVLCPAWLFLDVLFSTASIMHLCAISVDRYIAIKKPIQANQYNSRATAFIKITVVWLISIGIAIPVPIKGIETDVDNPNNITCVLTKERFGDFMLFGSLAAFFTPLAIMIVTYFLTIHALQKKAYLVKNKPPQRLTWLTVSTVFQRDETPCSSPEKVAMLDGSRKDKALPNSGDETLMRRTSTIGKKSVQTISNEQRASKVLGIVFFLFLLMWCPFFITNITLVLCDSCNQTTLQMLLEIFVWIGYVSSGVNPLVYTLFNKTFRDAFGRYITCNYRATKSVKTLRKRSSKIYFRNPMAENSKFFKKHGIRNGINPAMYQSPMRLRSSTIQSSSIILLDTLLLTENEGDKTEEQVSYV
Chain of 5-hydroxytryptamine receptor 5A (Homo sapiens) (P47898 whole entry): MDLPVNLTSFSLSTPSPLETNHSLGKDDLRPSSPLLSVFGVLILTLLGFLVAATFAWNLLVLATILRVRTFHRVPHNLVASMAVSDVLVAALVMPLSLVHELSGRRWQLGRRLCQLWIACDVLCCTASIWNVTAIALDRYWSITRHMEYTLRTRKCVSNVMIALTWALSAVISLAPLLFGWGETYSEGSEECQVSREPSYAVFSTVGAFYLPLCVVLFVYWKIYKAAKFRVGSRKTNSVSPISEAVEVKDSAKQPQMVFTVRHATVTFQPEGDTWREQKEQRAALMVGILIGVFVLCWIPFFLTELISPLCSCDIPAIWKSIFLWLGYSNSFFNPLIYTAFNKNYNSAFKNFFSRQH
Chain of Histamine H2 receptor (Homo sapiens) (P25021 whole entry): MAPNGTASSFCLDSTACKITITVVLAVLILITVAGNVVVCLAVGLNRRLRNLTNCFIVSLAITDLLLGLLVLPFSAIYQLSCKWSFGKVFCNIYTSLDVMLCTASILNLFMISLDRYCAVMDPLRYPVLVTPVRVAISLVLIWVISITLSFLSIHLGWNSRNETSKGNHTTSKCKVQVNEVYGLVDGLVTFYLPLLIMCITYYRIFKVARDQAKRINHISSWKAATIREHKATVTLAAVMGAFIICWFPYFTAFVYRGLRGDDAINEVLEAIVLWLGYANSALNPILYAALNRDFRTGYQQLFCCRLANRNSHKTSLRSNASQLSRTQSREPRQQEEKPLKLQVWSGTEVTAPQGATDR
Chain of Mu-type opioid receptor (Homo sapiens) (P35372 whole entry): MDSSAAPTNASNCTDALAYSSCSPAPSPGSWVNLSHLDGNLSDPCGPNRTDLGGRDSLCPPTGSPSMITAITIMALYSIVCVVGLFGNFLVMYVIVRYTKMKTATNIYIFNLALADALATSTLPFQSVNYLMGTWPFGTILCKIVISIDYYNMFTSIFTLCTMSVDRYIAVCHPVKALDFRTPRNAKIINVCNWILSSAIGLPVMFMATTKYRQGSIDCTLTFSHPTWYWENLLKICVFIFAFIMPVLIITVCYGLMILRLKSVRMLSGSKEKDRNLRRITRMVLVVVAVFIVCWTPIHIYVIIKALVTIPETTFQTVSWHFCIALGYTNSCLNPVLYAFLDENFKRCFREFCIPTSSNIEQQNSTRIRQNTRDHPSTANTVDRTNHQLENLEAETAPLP
Chain of 5-hydroxytryptamine receptor 7 (Homo sapiens) (P34969 whole entry): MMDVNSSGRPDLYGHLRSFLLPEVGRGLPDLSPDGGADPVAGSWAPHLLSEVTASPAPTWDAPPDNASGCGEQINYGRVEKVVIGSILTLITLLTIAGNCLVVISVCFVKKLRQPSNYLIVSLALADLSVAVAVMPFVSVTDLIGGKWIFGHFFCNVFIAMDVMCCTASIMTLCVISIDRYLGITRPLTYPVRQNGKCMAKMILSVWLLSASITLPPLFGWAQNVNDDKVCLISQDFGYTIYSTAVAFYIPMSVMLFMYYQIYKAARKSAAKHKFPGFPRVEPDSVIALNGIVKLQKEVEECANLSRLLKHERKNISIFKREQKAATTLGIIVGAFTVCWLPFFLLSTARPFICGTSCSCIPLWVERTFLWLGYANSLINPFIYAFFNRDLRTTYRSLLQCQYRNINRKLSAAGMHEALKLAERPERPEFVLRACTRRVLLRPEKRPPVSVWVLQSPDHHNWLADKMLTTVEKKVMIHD
Chain of 5-hydroxytryptamine receptor 1E (Homo sapiens) (P28566 whole entry): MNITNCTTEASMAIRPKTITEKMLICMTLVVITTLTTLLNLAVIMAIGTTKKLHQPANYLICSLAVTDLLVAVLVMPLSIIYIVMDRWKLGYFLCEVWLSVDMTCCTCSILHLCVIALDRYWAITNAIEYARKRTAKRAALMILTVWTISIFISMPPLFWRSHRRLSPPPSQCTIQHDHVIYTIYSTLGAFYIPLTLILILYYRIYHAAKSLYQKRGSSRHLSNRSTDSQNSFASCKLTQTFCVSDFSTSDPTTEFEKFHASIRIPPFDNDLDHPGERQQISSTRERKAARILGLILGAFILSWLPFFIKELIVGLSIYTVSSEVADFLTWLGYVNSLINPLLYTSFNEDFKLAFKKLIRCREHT

Row | Structure (SMILES) | inhibition [1] [%] | inhibition [2] [%] | inhibition [3] [%] | inhibition [4] [%] | inhibition [5] [%] | inhibition [6] [%] | Ki [7] [nM] | Ki [8] [nM] | inhibition [9] [%] | inhibition [10] [%] | inhibition [11] [%] | inhibition [12] [%] | inhibition [13] [%] | inhibition [14] [%] | inhibition [15] [%] | inhibition [16] [%] | inhibition [17] [%] | inhibition [18] [%]
1 | C1CCC(CN2CCCC2)CC1 | < 50 | < 50 | < 50 | < 50 | < 50 | < 50 | 410 | 2690 | < 50 | < 50 | < 50 | < 50 | < 50 | < 50 | < 50 | < 50 | < 50 | < 50
2 | C1CC2CCC1N2CC12C3C4C5C3C1C5C42 (centres undefined) | < 50 | < 50 | < 50 | < 50 | < 50 | < 50 | 18 | 802 | < 50 | < 50 | < 50 | < 50 | < 50 | < 50 | < 50 | < 50 | < 50 | < 50
3 | C1CCC(CN2C3CCC2CC3)CC1 | < 50 | < 50 | < 50 | < 50 | < 50 | < 50 | 18 | 2670 | < 50 | < 50 | < 50 | < 50 | < 50 | < 50 | < 50 | < 50 | < 50 | < 50
